Source: patent publication US5760036A, “Aminediol protease inhibitors” (E. R. Squibb & Sons, Inc., priority 1995, dated 1998)
Where a name gives a salt, the structure may show the parent alone. Read-outs that look alike come from different tables or passages of the source.

Tests used:
HIV protease = target: T1, HIV protease (Human immunodeficiency virus type 1 group M subtype B, UniProt P04585); experiment: HIV Protease Assay; type: biochemical
T1 construct: and purified protease
In short: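 At a single final concentration of 10 μM (4% DMSO), inhibitors were added to a 30-minute, 37° C reaction of purified enzyme with 450 μM H2N-Val-Ser-Gln-Asn-(β-naphthyl-alanine)-Pro-Val-Ile-OH at pH 5.5 (sodium acetate, BSA). Hydrolysis was quantified by reverse-phase HPLC with 220 nm detection after acid quench.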

[1] = tested on: RF strain of HIV (CEM-SS cells); experiment: Cell Culture Anti-HIV Activity (cell viability, formazan); type: cell-based; settings: Human immunodeficiency virus 1, CEM-SS, 144 h, CEM-SS cells, RF strain of HIV, multiplicity of infection 0.04, 6 days at 37° C., 450 nm; read-out: HIV (CEM Cells) IC50
Procedure: The antiviral activity of aminediol inhibitors of the present invention was evaluated by a microculture method which determines the increase in cell viability of an infected culture when a drug is added. The assay depends on the metabolic reduction of tetrazolium reagent by viable cells to yield a soluble colored formazan product.
The assay was performed as follows: suspensions of CEM-SS cells (5000/well) were infected with the RF strain of HIV at a multiplicity of infection at 0.04 in a 96-well plate. The compounds of the present invention listed in the following Table 1, serially diluted in half-log fashion, were added to the infected and uninfected control cells. Untreated (infected and uninfected) cells were included as controls. Following incubation for 6 days at 37° C., viable cells in each well were quantitated by the visible light absorbance at 450 nm.
The IC50 was calculated as the concentration of drug that increased the formazan production in virally infected cells to 50% of that produced by uninfected cells in the absence of drug.

[2] = pH 5.5, 10 μM inhibitor, 4% DMSO, 450 μM substrate, pH 5.5, 30 minutes at 37° C., RP-HPLC, read-out: HIV Protease % Inhibition at 10 μM

| SMILES | inhibition at 10 µM (HIV protease; [2]) [%] | IC50 [1] [nM] | inhibition at 10 µM (HIV protease; pH 5.5, read-out: HIV Protease % Inhibition at 10 μM) [%] | HIV Protease % Inhibition at 10 μM (HIV protease; 10 μM inhibitor, 4% DMSO, 450 μM substrate, pH 5.5, 30 minutes at 37° C., RP-HPLC) [%] |
| --- | --- | --- | --- | --- |
| CCC(=O)N[C@H](C(=O)N[C@@H](Cc1ccccc1)[C@H](O)CNC[C@@H](O)[C@H](Cc1ccccc1)NC(=O)OC(C)(C)C)C(C)C (relative stereo) [Compound 248, [1R*,2S*,(2S*,3R*)]-N-[3-[[3-[[(1,1-Dimethylethoxy)carbonyl]amino]-2-hydroxy-4-phenylbutyl]amino]-2-hydroxy-1-(phenylmethyl)propyl]-N^2-(1-oxopropyl)-L-valinamide] | 99 | 230 |  |  |
| CC(C)[C@H](NC(=O)c1ccc2ccccc2n1)C(=O)N[C@@H](Cc1ccccc1)[C@H](O)CNC[C@@H](O)[C@H](Cc1ccccc1)NC(=O)OC(C)(C)C [Compound 80, [S-[1R*,2S*(2S*,3R*)]]-N-[3-[[3-[[(1,1-Dimethylethoxy)carbonyl]amino]-2-hydroxy-4-phenylbutyl]amino]-2-hydroxy-1-(phenylmethyl)propyl]-N2-(2-quinolinylcarbonyl)-L-valinamide] | 98 | 300 |  |  |
| CC(C)(C)OC(=O)N[C@@H](Cc1ccccc1)[C@H](O)CNC[C@@H](O)[C@H](Cc1ccccc1)NC(=O)OCCO [Compound 241, [R-(R*,S*)]-[Iminobis[2-hydroxy-1-(phenylmethyl)-3,1-propanediyl)]biscarbamic acid, 1,1-dimethylethyl-2-hydroxyethyl ester] | 95 | 280 |  |  |
| CC(C)(C)OC(=O)N[C@@H](Cc1ccccc1)[C@H](O)CNC[C@@H](O)[C@H](Cc1ccccc1)NC(=O)OC(C)(C)c1ccccc1 [Compound 156, [1S-(1R*,2S*)]-2-hydroxy-1-(phenylmethyl)-3,1-propanediyl)biscarbamic acid, 1,1-dimethylethyl-1-methyl-1-phenylethyl ester] | 85 | > 6000 |  |  |
| CC(C)(C)OC(=O)N[C@@H](Cc1ccccc1)[C@H](O)CNC[C@@H](O)[C@H](Cc1ccccc1)NC(=O)OC(C)(C)CCCNCc1ccccc1 [Compound 153, [1S-(1R*,2S*)]-[Iminobis[2-hydroxy-1-(phenylmethyl)-3,1-propanediyl]biscarbamic acid, 1,1-dimethylethyl 1,1-dimethyl-4-[(phenylmethyl)-amino]butyl ester] | 65 | > 550 |  |  |
| CC(C)(C)OC(=O)N[C@@H](Cc1ccccc1)[C@H](O)CNC[C@@H](O)[C@H](Cc1ccccc1)NC(=O)OC(C)(C)CCOCc1ccccc1 [Compound 158, [1S-(1R*,2S*)]-[Iminobis[2-hydroxy-1-(phenylmethyl)-3,1-propanediyl]biscarbamic acid, 1,1-dimethylethyl 1,1-dimethyl-3-(phenylmethoxy)-propyl ester] | 97 | > 1800 |  |  |
| CC(C)[C@H](NC(=O)OCc1ccccc1)C(=O)N[C@@H](Cc1ccccc1)[C@H](O)CNC[C@H](O)[C@H](Cc1ccccc1)NC(=O)OC(C)(C)C [Compound 125, [S-[1R*,2S*(2R*,3R*)]-N-[3-[[3-[[(1,1-Dimethylethoxy)carbonyl]amino]-2-hydroxy-4-phenylbutyl]amino]-2-hydroxy-1-(phenylmethyl)propyl]-N^2 [(phenylmethoxy)carbonyl]-L-valinamide] | 71 | > 1500 |  |  |
| CC(C)(C)OC(=O)N[C@@H](Cc1ccccc1)[C@H](O)CNC[C@@H](O)[C@H](Cc1ccccc1)NC(=O)OC1(C)CCC1 [Compound 160, [1S-(1R*,2S*)]-[Iminobis[2-hydroxy-1-(phenylmethyl)-3,1-propanediyl]]bis[carbamic acid], 1,1-dimethylethyl-1-methylcyclobutyl ester] | 99 | 80 |  |  |
| CC(C)(C)OC(=O)N[C@@H](Cc1ccccc1)[C@H](O)CNC[C@@H](O)[C@H](Cc1ccc2ncccc2c1)NC(=O)OC(C)(C)C [Compound 31, [1S-[1R*,2S*(2S*,3R*)]]-[3-[[3-[[(1,1-Dimethylethoxy)-carbonyl]amino]-2-hydroxy-4-phenylbutyl]amino-2-hydroxy-1-(6-quinolinylmethyl)propyl]carbamic acid, 1,1-dimethylethyl ester] | 100 | 30 |  |  |
| CC(C)[C@H](NC(=O)N(C)Cc1nc2ccccc2[nH]1)C(=O)N[C@@H](Cc1ccccc1)[C@H](O)CNC[C@@H](O)[C@H](Cc1ccccc1)NC(=O)OC(C)(C)C (relative stereo) [Compound 245, [1R*,2S*(2S*,3R*)]-N-[3-[[3-[[(1,1-Dimethylethoxy)carbonyl]amino]-2-hydroxy-4-phenylbutyl]amino]-2-hydroxy-1-(phenylmethyl)propyl]-N^2-[[(1H-benzimidazol-2-yl-methyl)methylamino]carbonyl]-L-valinamide] | 100 | 1800 |  |  |
| CC(C)[C@H](NC(=O)[C@@H](N)Cc1ccccc1)C(=O)N[C@@H](Cc1ccccc1)[C@H](O)CNC[C@@H](O)[C@H](Cc1ccccc1)NC(=O)[C@@H](NC(=O)[C@@H](N)Cc1ccccc1)C(C)C [Compound 92, [S-(1R*,2S*)]-N,N'-[Iminobis[2-hydroxy-1-(phenylmethyl)-3,1-propanediyl]bis[N^2-(L-phenylalanyl)-L-valinamide[,trihydrochloride] | 100 | 39000 |  |  |
| CC(C)(C)CC(=O)N[C@@H](Cc1ccccc1)[C@H](O)CNC[C@@H](O)[C@H](Cc1ccccc1)NC(=O)OC(C)(C)C [Compound 60, [1S-[1R*,2S*(2S*,3R*)]]-[3 [[3-[(3,3-Dimethyl-1-oxybutyl)amino]-2-hydroxy-4-phenylbutyl]amino]-2-hydroxy-1-(phenylmethyl)-propyl]carbamic acid, 1,1-dimethylethyl ester] |  | 1200 | 78 |  |
| COC(=O)N[C@H](C(=O)N[C@@H](Cc1ccccc1)[C@H](O)CNC[C@@H](O)[C@H](Cc1ccccc1)NC(=O)[C@@H](NC(=O)OC)C(C)(C)C)C(C)(C)C (relative stereo) [Compound 324, 1S-(1S*,2R*)-N, N'-Iminobis[2-hydroxy-1-(phenylmethyl)-3,1-propanediyl]bis(imino)bis[1-(1,1-dimethylethyl)-2-oxo-2,1-ethanediyl]]biscarbamic acid, dimethyl ester] | 100 | 220 |  |  |
| CC(C)(C)NC(=S)N[C@@H](Cc1ccccc1)[C@H](O)CNC[C@@H](O)[C@H](Cc1ccccc1)NC(=O)OC(C)(C)C [Compound 137, [1S-[1R*,2S*(2S*,3R*)]]-[3-[[3-[[[(1,1-Dimethylethyl)amino]thioxomethyl]amino]-2-hydroxy-4-phenylbutyl]amino]-2-hydroxy-1-(phenylmethyl))propyl]carbamic acid, 1,1-dimethylethyl ester] | 92 | > 2600 |  |  |
| CC(C)(C)OC(=O)N[C@@H](Cc1ccccc1)[C@H](O)CNC[C@@H](O)[C@H](Cc1ccccc1)NC(=O)COc1ccccc1 (relative stereo) [Compound 72, 1S-[1R*,2S*(2S*,3R*)]]-[2-Hydroxy-3-[[2-hydroxy-3-[(phenoxyacetyl)amino]-4-phenylbutyl]amino]-1-(phenylmethyl)propyl]carbamic acid, 1,1-dimethylethylester] | 51 | > 3200 |  |  |
| CC(C)(C)OC(=O)N[C@@H](Cc1ccccc1)[C@H](O)CNC[C@@H](O)[C@H](Cc1ccccc1)NC(=O)[C@@H](NC(=O)OCc1cc2ccncc2o1)C(C)(C)C [Compound 339, [S-[1R*,2S*(2S*,3R*)]]-[2,2-Dimethyl-1-[[[3-[[3-[[(1,1-dimethylethoxy)carbonyl]amino]-2-hydroxy-4-phenylbutyl]amino]-2-hydroxy-1-(phenylmethyl)-propyl]amino]carbonyl]propyl]carbamic acid, (2-furo[2,3-c]pyridinyl) methyl ester] | 99 | 12 |  |  |
| CC(C)[C@H](NC(=O)OCc1cc2ccccc2[nH]1)C(=O)N[C@@H](Cc1ccccc1)[C@H](O)CNC[C@@H](O)[C@H](Cc1ccccc1)NC(=O)OC(C)(C)C (relative stereo) [Compound 104, [1R*,2S*(2S*,3R*)]-N-[3-[[3-[[(1,1-dimethylethoxy)carbonyl]amino]-2-hydroxy-4-phenylbutyl]amino]-2-hydroxyl-1-(phenylmethyl)propyl]-N^2-[(1H-indol-2-ylmethoxy)carbonyl]-L-valinamide] | 99 | 30 |  |  |
| CC(C)(C)OC(=O)N[C@@H](Cc1ccccc1)[C@H](O)CNC[C@@H](O)[C@H](Cc1ccccc1)NC(=O)C(CCO)C(C)(C)C (single isomer, unassigned; isomer a) [Compound 312, [1S-[1R*, 2S* (2S*, 3R*)]]-[3-[[3-[[2-(1,1-Dimethylethyl)-4-hydroxy-1-oxobutyl]amino]-2-hydroxy-4-phenylbutyl]amino]-2-hydroxy-1-(phenylmethyl)propyl]carbamic acid, 1,1-dimethylethyl ester, isomer A] |  | 3500 |  | 95 |
